Here are results for 4 molecules from US10226462B2, “Detection and treatment of excessive hair shedding” (Samson Clinical Pty Ltd, priority 2014, dated 2019).

Data set [1] relates to telogen effluvium. Conditions: treatments commonly used for AGA; cited from earlier work.
In data set [2] the test system is chronic telogen effluvium. In words: Once daily oral minoxidil in women with chronic telogen effluvium (CTE), hair shedding score and safety. The conditions noted are these: for Mean HSS: 36 women, oral 0.5-2.5 mg daily, baseline 5.63; for Reduction in mean HSS: p<0.001. The method, then: The goals of this study were to review the use of oral minoxidil in CTE with respect to the response to hair shedding and safety. Hair shedding was assessed by patient self-reported Hair shedding Scores (HSS) using the visual analogue scale as described in Example 1 and FIG. 1. Hair Shedding Scores (HSS) were on the scale of 1 to 6 (6 being the highest level of hair shedding). Patients included in this study were women with a diagnosis of CTE based on >6 month history of increased telogen hair shedding, a HSS of 4-6, no visible mid frontal scalp hair loss (Sinclair stage 1) and no hair follicle miniaturization on scalp biopsy.
Data pertaining to dosage of oral minoxidil, previous treatments including topical minoxidil use, blood pressure, side effects, hypertrichosis and trichodynia were collected for each patient. Patient-reported responses were based on a visual analogue scale HSS at each consultation. The HSS prior to starting oral minoxidil, and scores at 6 and 12 months were extracted for analysis. Patients were treated with a once daily oral minoxidil (0.5 to 2.5 mg).
Data were analysed using Matlab R2014b statistical software. Hair shedding scores at baseline, 6 and 12 months were analysed using the Wilcoxon rank sum test for pair-wise comparisons. Differences in blood pressure at baseline and 6 months were also analysed using Wilcoxon rank sum test. Relationship between outcomes (HSS at six and 12 months) and individual patient specific variables including previous use of […], duration of disease, dosage and HSS at baseline were analysed using a generalised linear regression model.

Data set [3] concerns Monilethrix. Description: Oral minoxidil in two cases of monilethrix. The method, then: Patient 6: A person presented with lifelong fragile, sparse, and thin hair. […] Comorbidities included Crohn's disease and impaired hearing. Their child and two sons had also been diagnosed with monilethrix and suffered from sparse and fragile hair. […] As the application of topical minoxidil could potentially accentuate breakage of fragile hairs, treatment was commenced with oral minoxidil 0.25 mg daily.
Patient 7: A person with fragile, thin and sparse hair since childhood secondary to monilethrix presented for assessment and treatment. […] As the application of topical minoxidil could potentially accentuate breakage of fragile hairs oral Minoxidil 0.25 mg daily was commenced.

Data set [4] has as its system bitemporal hair loss in female pattern hair loss. In words: Oral minoxidil 0.25 mg daily in women with bitemporal recession in female pattern hair loss. In kind it is in vivo, human. The conditions noted are these: for Hair shedding (HSS stage): baseline stage 6.
Data set [5] has as its system androgenetic alopecia (male pattern hair loss). In words: Pilot open study of oral minoxidil 0.25 mg once daily for 24 weeks in men with AGA. It counts as in vivo, human. Conditions: 0.25 mg daily. The method, then: This study was a pilot, prospective, open, observational study conducted at the Sinclair Dermatology Clinic in Melbourne, Australia. Participants were dosed for 24 weeks. Treatment naïve men with Hamilton Norwood staged III vertex, IV or V were treated for 24 weeks with minoxidil 0.25 mg once daily. The primary efficacy endpoint was investigators' photographic assessment at week 24 and adverse events. Investigator photographic assessment was conducted by a single investigator grading the photographs using a 3 point rating scale, ranging from “decreased hair growth” to “increased hair growth,” centred at no change. Any reports of adverse events were collected at every visit.

As for `CC(=O)S[C@@H]1CC2=CC(=O)CC[C@]2(C)[C@H]2CC[C@@]3(C)[C@@H](CC[C@@]34CCC(=O)O4)[C@H]12` [spironolactone], the “Efficacy in TE” value in data set [1] is “do not work”.

`CC(C)(C)NC(=O)[C@H]1CC[C@H]2[C@@H]3CC[C@H]4NC(=O)C=C[C@]4(C)[C@H]3CC[C@]12C` [finasteride]: the “Efficacy in TE” value in data set [1] is “do not work”.

`CC(=O)O[C@]1(C(C)=O)CC[C@H]2[C@@H]3C=C(Cl)C4=CC(=O)[C@@H]5C[C@@H]5[C@]4(C)[C@H]3CC[C@@]21C` [cyproterone acetate]: in data set [1], the “Efficacy in TE” value is on record as “do not work”.

In the case of `Nc1cc(N2CCCCC2)nc(N)[n+]1[O-]` [minoxidil], in data set [2] (after 6 months, of 36), the “Patients in whom the HSS improved” value is recorded as 31 and the “Patients in whom the HSS remained the same” value is given as 4. Also, the “Mean HSS” value in data set [2] (at 6 months) came to 3.9. For the same molecule, in data set [2] (at 12 months), the “Mean HSS” value is given as 3.05. Besides, the “Patients in whom the HSS increased” value in data set [2] (at the 6-month mark, of 36) is on record as 1. In addition, the “Patients improved from baseline” value in data set [2] (at the 12 month mark, of 36) stood at 33. Also, the “Reduction in mean HSS” value in data set [2] (baseline to 6 months) was 1.7. Moreover, in data set [2] (baseline to 12 months), the “Reduction in mean HSS” value is listed as 2.58. For the same molecule, in data set [2] (between 6 months and 12 months, p=0.003), the “Mean reduction in HSS” value stood at 0.89. Also, in data set [2] (in vivo), the “Lowest blood pressure recorded” value is 90/70; the “Mean change in blood pressure, diastolic” value was “plus 2.1 mmHg”; the “Mean change in blood pressure, systolic” value is recorded as “minus 0.5 mmHg”; the “Mean dose in patient group with hypertrichosis (Yes)” value is listed as 1.46 mg. Also, in data set [2] (in vivo), the “Mean dose in patient group with trichodynia (Yes)” value was determined as 1.19 mg, the “Mean dose in patient group without hypertrichosis (No)” value was determined as 0.99 mg and the “Mean dose in patient group without trichodynia (No)” value is given as 1.11 mg. In addition, in data set [2] (of 36), the “Patients who developed ankle oedema” value was “One”, the “Patients who developed any blood test abnormalities” value was “No patients” and the “Women who developed facial hypertrichosis” value is “Thirteen”. For the same molecule, in data set [2] (of 36, resolved with continued treatment), the “Patients who developed transient postural dizziness” value is reported as “Two”. Further, the “Difference between blood pressure at baseline and 6 months” value in data set [2] (p>0.05) is recorded as “no significant differences”. The “Mean reduction in HSS” value in data set [2] (patients who had not used topical minoxidil, at 12 months) amounted to 2.32. Further, in data set [2] (patients who had not used topical minoxidil, at six months), the “Mean reduction in HSS” value is reported as 1.56. Further, the “Mean reduction in HSS” value in data set [2] (patients who had previously used topical minoxidil, at 12 months) came to 3.18. Further, in data set [2] (patients who had previously used topical minoxidil, at six months), the “Mean reduction in HSS” value worked out at 2. The Side effects entry in data set [3] (Patient 6, oral 0.25 mg daily) was “did not experience any side effects or complication”. Besides, the Tolerability entry in data set [3] (low doses, oral) is “well tolerated”. The Side-effects entry in data set [4] (Patient 8) is given as “no side-effects”. Further, in data set [4] (Patient 8, 0.25 mg, review at 3 months), the “Hair shedding (HSS stage)” value worked out at 5. For the same molecule, in data set [4] (Patient 8, review at 3 months, baseline 110/70), the Blood pressure was 115/65. Further, the Facial hypertrichosis entry in data set [4] (Patient 8, review at 3 months, present at baseline) is reported as “unaltered”. Moreover, the “Side effects or complications of treatment” value in data set [4] (Patient 9) is reported as “not experienced any side effects or complications”. The “Hair shedding (HSS stage)” value in data set [4] (Patient 9, 0.25 mg once daily with continued spironolactone 100 mg daily, review at 6 weeks) is 4. Further, the Blood pressure in data set [4] (Patient 9, review at 6 weeks, baseline 140/85) was 125/85. Also, the Tolerability result in data set [5] (patients with MPHL) is “well tolerated”. In addition, the Adverse events result in data set [5] (six men, 24 weeks) is given as “No adverse events”.
